What was measured:
[1] = target: T1, His-tagged recombinant human PPARβ/δ ligand binding domain (Homo sapiens, UniProt Q03181); test: CNBr-bead conjugation (pull-down) assay, hPPARβ/δ-LBD; conditions: CNBr-coupled drug, positive control GW501516, FIG. 2
T1 construct: made in house; host or cells: E. coli (DE3, Rosetta)
T1 sequence (Q03181 211-439 limits assumed): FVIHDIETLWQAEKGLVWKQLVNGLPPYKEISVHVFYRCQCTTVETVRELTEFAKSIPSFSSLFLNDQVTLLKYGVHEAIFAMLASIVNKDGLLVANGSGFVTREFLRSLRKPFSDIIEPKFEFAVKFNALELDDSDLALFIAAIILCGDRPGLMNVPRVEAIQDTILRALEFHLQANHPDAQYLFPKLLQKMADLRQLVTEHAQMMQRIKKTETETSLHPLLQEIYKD
Protocol: (§1) A compound of the present invention represented by Chemical Formula 1 was synthesized by DAEJUNG Chemicals & Metals (Gyeonggi-do, Korea) (indicated as ‘D6’ in the drawing). WY14643, GW501516, and rosiglitazone were purchased from Sigma-Aldrich (St. Louis, MO, USA). The compounds were dissolved in dimethyl sulfoxide (DMSO), diluted in a culture solution, and used in the experiment. Cyanogen bromide (CNBr)-activated Sepharose 4B was purchased from Sigma-Aldrich (St. Louis, MO, USA). His-tagged recombinant human PPAR-ligand binding domain (LBD) was expressed in E. coli (DE3, Rosetta) and then purified and used. A His antibody was purchased from Cell Signaling Technology (Danvers, Massachusetts, USA). 3-Isobutyl-1-methylxanthine (IBMX), dexamethasone, bovine pancreatic insulin, and Oil Red O were purchased from Sigma-Aldrich (St. Louis, MO, USA). A PRO-PREP™ Protein Extraction Solution was purchased from iNtRON Biotechnology (iNtRON Biotech., Korea). […]
(§2) 100 mg of CNBr-activated Sepharose 4B was added to an e-tube, and then the beads were activated by rotating with 1 ml of 1 mM HCl for 10 minutes at room temperature. […] Each e-tube was added with the drug and rotated overnight at 4° C., at which time the concentration was measured to be 20 μM. […] The supernatant was completely removed, and the pellet was detected by Western blotting. […]

[2] = target: T2, His-tagged recombinant human PPARγ ligand binding domain (Homo sapiens, UniProt P37231); test: CNBr-bead conjugation (pull-down) assay, hPPARγ-LBD; conditions: CNBr-coupled drug, positive control rosiglitazone, FIG. 2
T2 construct: made in house; host or cells: E. coli (DE3, Rosetta)
T2 sequence (P37231 238-503 limits assumed): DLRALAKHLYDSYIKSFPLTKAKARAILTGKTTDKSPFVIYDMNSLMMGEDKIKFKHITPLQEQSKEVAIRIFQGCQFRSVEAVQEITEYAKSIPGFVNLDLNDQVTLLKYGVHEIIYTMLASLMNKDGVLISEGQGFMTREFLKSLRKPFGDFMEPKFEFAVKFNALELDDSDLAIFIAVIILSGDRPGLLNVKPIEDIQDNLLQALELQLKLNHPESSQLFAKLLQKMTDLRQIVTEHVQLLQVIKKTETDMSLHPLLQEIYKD
Protocol: as §1, §2

[3] = tested on: 3T3-L1 adipocytes; test: 3T3-L1 adipocyte differentiation, Oil Red O staining; format: cell-based, mouse; conditions: treated together with rosiglitazone, each 25 μM
Protocol: A mouse preadipocyte 3T3-L1 cell line was cultured in DMEM containing 10% […] (CS) and 1% P/S. For differentiation of 3T3-L1, 10% FBS and 1% P/S were used. The cells were cultured in a 37° C. incubator humidified with 5% CO2 atmosphere.
3T3-L1 cells were seeded in a 12-well plate at a density of 5×10^4 cells/well. […] On day 2 of MDI addition, the medium was replaced with 1 μg/ml insulin.
After 2 days, the medium was replaced with DMEM containing 10% FBS and 1% P/S, and treated with a drug. The medium was replaced with fresh DMEM containing 10% FBS and 1% P/S, and treated with the drug three times every 2 days. Finally, the medium was replaced with DMEM containing only the drug in a serum-free state (serum starvation). After 2 days, differentiation of 3T3-L1 was completed.
After the differentiation of 3T3-L1 in the 12-well plate was completed, the cells were fixed with 4% paraformaldehyde and stained with an Oil Red O solution, and then the stained samples were photographed under a microscope (Nikon Eclipse Ti-s). An Oil Red O dye of the samples was dissolved in isopropanol, detected by a spectrophotometer at 492 nm, and the lipid droplet size distribution was measured using ImageJ. OCT-embedded liver samples were stained according to the Roy Ellis protocol. […]

COc1ccc(-c2cc(=O)oc3c(C)c(OC(=O)[C@H](Cc4c[nH]c5ccccc45)NC(=O)OC(C)(C)C)ccc23)cc1 [Chemical Formula 1, [4-(4-methoxyphenyl)-8-methyl-2-oxochromen-7-yl] (2S)-3-(1H-indol-3-yl)-2-[(2-methylpropan-2-yl)oxycarbonylamino]propanoate]
conjugation (binding) to hPPARβ/δ-LBD, Western blotting [1]: as much potently as a PPAR agonist used as a positive control
conjugation (binding) to hPPARγ-LBD, Western blotting [2]: as much potently as a PPAR agonist used as a positive control
lipid droplet size distribution in adipocytes ([3]; FIG. 4 right): effectively reduced
lipid accumulation in adipocytes increased by rosiglitazone (Oil Red O) ([3]; FIGS. 3 and 4 left): reduced

— US20260027083A1, “USE OF PPAR AGONIST FOR IMPROVEMENT OF ENERGY METABOLISM” (NOVMETAPHARMA CO., LTD., priority 2022, published 2026)
